The values below are quoted from earlier work in US9446139B2, “Polymer-based compositions and conjugates of HIV entry inhibitors” (Nektar Therapeutics, priority 2004, dated 2016).

For series [1] the following is noted: 90-mg single subcutaneous dose (N=12).

For enfuvirtide, the “mean duration of each ISR” value (human, in vivo) is recorded as “around 7 days”. The “patients reporting at least one instance of painful or troublesome local injection site reactions (ISR)” value (subcutaneous injection two times a day) is recorded as 98%. In series [1], the “mean elimination half life” value was 3.8 ± 0.6 h and the “mean±SD apparent clearance” value was 0.413 ± 0.0683 mL/min/kg.
